Data as given in patent EP2030621A1, “Novel substituted pyrimidines as cysteine protease inhibitors” (GLAXO GROUP LIMITED, priority 2007, dated 2009).
Counter-ions that a name gives are not always drawn.

Experiments:
[1] = tested on: Plasmodium falciparum parasite; assay: Whole cell assay: whole cell activity against the parasite; assay type: cell-based; details: Plasmodium falciparum
From the text: Compounds can be evaluated for whole cell actvity against the Plasmadium falciparum parasite according to the procedure described in Sijwali S. and Rosenthal P. J., (2004) Proceedings of the National Academy of Sciences of the United States of America (PNAS) 101(13), 4384-4389 (see in particular "Measurement of Parasite Growth rates and Inhibitor Sensitivity" on page 4385); IC50 values can be calculated as described in Singh A. and Rosenthal P. J., (2001) Antimicrobial Agents and Chemotherapy 45(3), 949-951 (see in particular page 950, first column); synchronised parasites can be prepared as described in Divo A. A. et al., (1985) Protozool. 32, 59-64. 3) In vitro models to evaluate activity against bone metastasis

Falcipain-2 = Falcipain-2 (Plasmodium falciparum, UniProt Q8I6U4); assay: Falcipain-2 enzymatic assay (fluorogenic peptide substrate, quenched endpoint read); assay type: biochemical
Protocol: (§1) 1 Determination of Falcipain-2, Falcipain-3, Vivapain-2, Cathepsin K Cathepsin S, Cathepsin L, and Cathepsin B proteolytic catalytic activity
(§2) Assays for Falcipain-2, Faicipain-3, and Vivapain-2 are carried out with parasitic recombinant enzymes. Cathepsins K, S, L, and B are carried out with human recombinant enzymes. Standard assay conditions for the determination of kinetic constants used a fluorogenic peptide substrate, typically H-D-VLR-AFC (Falcipain-2, Falcipain-3, Vivapain-2), Z-FR-AFC (Cathepsin K, L, B), or KQKLR-AMC (Cathepsin S) and are determined in 100 mM sodium acetate, pH 5.5, containing 10 mM DTT and 0.5 mM CHAPS (Falcipain-2, Falcipain-3, Vivapain-2), and 100 mM sodium acetate, pH 5.5, containing 5 mM L-cysteine, 1mM CHAPS and 5mM EDTA (Cathepsin K, L, B), or 50mM MES, pH 6.5, containing 0.5mM CHAPS, 10mM L-CYS, 5mM EDTA (Cathepsin S). Stock substrate solutions are prepared at 20 mM in DMSO. The activity assays contained 30 uM substrate (Falcipain-2, Falcipain-3, Vivapain-2), 20 uM substrate (Cathepsin K), 25uM substrate (Cathepsin B), 5uM substrate (Cathepsin L), and 30uM substrate (Cathepsin S). All assays contained 1% DMSO. […] All assays are conducted at ambient temperature as end point assays being quenched after 60 minutes with the exception of Cathepsin S at 90 minutes, with 16.6 uM E-64 in 1% DMSO. Product formation (AFC or AMC) is determined from fluorescence (excitation at 405nm; emission at 530nm, AFC, or excitation at 360 nm; emission at 460 nm, AMC) monitored with a LJL Aquest (Molecular Devices) fluorescent plate reader. In the case of kinetic reads (used in mechanism of action studies), the reaction is not quenched but is read in the plate reader every 3 minutes for approximately 90 minutes. In addition, the mechanism of action studies for Falcipain-2 utilize Z-LR-AMC as the substrate. Product formation is determined from the fluorescence of AMC, measured with a LJL Acquest (Molecular Devices) fluorescent plate reader (excitation at 360nm; emission at 460nm).
(§3) Potential inhibitors are evaluated using the quenched read (endpoint) method. Assays are carried out in the presence of variable concentrations of test compound. Reactions are initiated by addition of enzyme and substrate to wells containing inhibitor stamped in 100% DMSO. For endpoint assays, the reaction is quenched with the addition of E64. Dose response data is fit to an IC50 curve with preset fitting tools according to equation 1: y = a + (b-a)/(1 + (10^x /10^c ())^d ) [formula] where y is the response at a particular inhibitor concentration x, a is the minimum response value, b is the maximum response value, c is the IC50, and d is the slope of the IC50 curve. […]. For a more direct measurement of the KI and the binding mechanism, we performed mechanism of action studies that included a titration of substrate and inhibitor with a kinetic read. […]

Falcipain-3 = Falcipain-3 (Plasmodium falciparum, UniProt Q8IIL0); assay: Falcipain-3 enzymatic assay (fluorogenic peptide substrate, quenched endpoint read); assay type: biochemical
Protocol: as §1, §2, §3

Chain of Falcipain-2 (Q8I6U4 244-484): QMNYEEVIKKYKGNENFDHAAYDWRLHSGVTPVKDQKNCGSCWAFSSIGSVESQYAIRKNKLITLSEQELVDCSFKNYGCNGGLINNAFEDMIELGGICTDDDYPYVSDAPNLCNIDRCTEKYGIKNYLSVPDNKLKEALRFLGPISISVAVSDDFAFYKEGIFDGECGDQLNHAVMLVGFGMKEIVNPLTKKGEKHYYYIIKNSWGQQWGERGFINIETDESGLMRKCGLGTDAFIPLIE
Chain of Falcipain-3 (Q8IIL0 243-492): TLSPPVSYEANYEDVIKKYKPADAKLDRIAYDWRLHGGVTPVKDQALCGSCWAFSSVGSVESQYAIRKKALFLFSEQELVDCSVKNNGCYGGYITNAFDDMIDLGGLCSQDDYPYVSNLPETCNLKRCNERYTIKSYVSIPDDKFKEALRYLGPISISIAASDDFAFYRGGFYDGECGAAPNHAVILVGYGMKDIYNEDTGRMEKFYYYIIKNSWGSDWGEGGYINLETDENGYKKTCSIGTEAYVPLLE

Row | Compound | IC50 [1] [nM] | IC50 (Falcipain-2) [nM] | IC50 (Falcipain-3) [nM]
1 | CN1CCN(C(=O)C2CCN(Cc3ccc(C(=O)NN(c4nc(C#N)ncc4Cl)C4CCOCC4)cc3)CC2)CC1 [Example 36, N'-(5-Chloro-2-cyano-4-pyrimidinyl)-4-({4-[(4-methyl-1-piperazinyl)carbonyl]-1-piperidinyl}methyl)-N'-(tetrahydro-2H-pyran-4-yl)henzohydrazide trifluoroacetate] | 15 to 150 | 1 to 2.5 | –
2 | CN1CCN(Cc2ccc(C(=O)NN(c3nc(C#N)ncc3Br)C3CCCC3)cc2)CC1 [Example 1, N'-(5-bromo-2-cyano-4-pyrimidinyl)-N'-cyclopentyl-4-[(4-methyl-1-piperazinyl)methyl]benzohydrazide trifluoroacetate] | 15 to 150 | – | 15 to 150
3 | CN1CCN(Cc2ccc(C(=O)NN(c3nc(C#N)ncc3Br)C3CCOCC3)cc2)CC1 [Example 42, N'-(5-bromo-2-cyano-4-pyrimidinyl)-4-[(4-methyl-1-piperazinyl)methyl]-N'-(tetrahydro-2H-pyran-4-yl)benzohydrazide trifluoroacetate] | 15 to 150 | 1 to 2.5 | –
4 | CN1CCN(C2CCN(Cc3ccc(C(=O)NN(c4nc(C#N)ncc4Br)C4CCOCC4)cc3)CC2)CC1 [Example 29, N'-(5-Bromo-2-cyano-4-pyrimidinyl)-4-{[4-(4-methyl-1-piperazinyl)-1-piperidinyl]methyl}-N'-(tetrahydro-2H-pyran-4-yl)benzohydrazide trifluoroacetate] | 15 to 150 | – | 15 to 150
5 | CN1CCN(Cc2ccc(C(=O)NN(c3nc(C#N)ncc3Cl)C3CCCC3)cc2)CC1 [Example 50, N'-(5-chloro-2-cyano-4-pyrimidinyl)-N'-cyclopentyl-4-[(4-methyl-1-piperazinyl)methyl]benzohydrazide trifluoroacetate] | 15 to 150 | 1 to 2.5 | –
6 | CC(=O)N1CCC(N(NC(=O)c2ccc(CN3CCC(N4CCN(C)CC4)CC3)cc2)c2nc(C#N)ncc2Br)CC1 [Example 38, N'-(1-acetyl-4-piperidinyl)-N'-(5-bromo-2-cyano-4-pyrimidinyl)-4-{[4-(4-methyl-1-piperazinyl)-1-piperidinyl]methyl}benzohydrazide trifluoroacetate] | 150 to 250 | – | 15 to 150
7 | CN1CCCC(CN2CCN(Cc3cccc(C(=O)NN(c4nc(C#N)ncc4Br)C4CCCCC4)c3)CC2)C1 (stereo not shown) [Example 27, N'-(5-bromo-2-cyano-4-pyrimidinyl)-N'-cyclohexyl-3-({4-[(1-methyl-3-piperidinyl)methyl]-1-piperazinyl}methyl)benzohydrazide trifluoroacetate] | 2.5 to 15 | – | –
8 | CN1CCC(CN2CCN(Cc3cccc(C(=O)NN(c4nc(C#N)ncc4Br)C4CCCC4)c3)CC2)CC1 [Example 15, N'-(5-bromo-2-cyano-4-pyrimidinyl)-N'-cyclopentyl-3-({4-[(1-methyl-4-piperidinyl)methyl]-1-piperazinyl}methyl)benzohydrazide trifluoroacetate] | 2.5 to 15 | – | 15 to 150
9 | CN1CCN(Cc2cccc(-c3cncc(C(=O)NN(c4nc(C#N)ncc4Br)C4CCCCC4)c3)c2)CC1 [Example 47, N'-(5-bromo-2-cyano-4-pyrimidinyl)-N'-cyclohexyl-5-{3-[(4-methyl-1-piperazinyl)methyl]phenyl}-3-pyridinecarbohydrazide trifluoroacetate] | 2.5 to 15 | – | –
10 | C[C@@H]1CCC[C@H]1N(NC(=O)c1ccc(CN2CCN(C)CC2)cc1)c1nc(C#N)ncc1Br (racemic) [Example 3, N'-(5-bromo-2-cyano-4-pyrimidinyl)-N'-[(1R,2R+1S,2S)-2-methylcyclopentyl]-4-[(4-methyl-1-piperazinyl)methyl]benzohydrazide trifluoroacetate] | 2.5 to 15 | – | –

The next lines start with results.

Row | IC50 [1] [nM] | Compound | IC50 (Falcipain-2) [nM] | IC50 (Falcipain-3) [nM]
11 | 15 to 150 | C[C@@H]1CCC[C@H]1N(NC(=O)c1ccc(F)cc1)c1nc(C#N)ncc1Br (racemic) [Example 43, N'-(5-bromo-2-cyano-4-pyrimidinyl)-4-fluoro-N'-[(1R,2R+1S,2S))-2-methylcyclopentyl]benzohydrazide trifluoroacetate] | – | –
12 | 15 to 150 | CN1CCC(CN2CCN(Cc3ccc(C(=O)NN(c4nc(C#N)ncc4Cl)C4CCOCC4)cc3)CC2)CC1 [Example 35, N'-(5-Chloro-2-cyano-4-pyrimidinyl)-4-({4-[(1-methyl-4-piperidiny)methyl]-1-piperazinyl}methyl)-N'-(tetrahydro-2H-pyran-4-yl)benzohydrazide trifluoroacetate] | – | –
13 | 15 to 150 | N#Cc1ncc(Br)c(N(NC(=O)c2ccc(CN3CCC(O)CC3)cc2)C2CCCCC2)n1 [Example 21, N'-(5-bromo-2-cyano-4-pyrimidinyl)-N'-cyclohexyl-4-[(4-hydroxy-1-piperidinyl)methyl]benzohydrazide trifluoroacetate] | – | –
14 | 15 to 150 | CN(CCC(O)c1ccccc1)Cc1ccc(C(=O)NN(c2nc(C#N)ncc2Cl)C2CCCC2)cc1 (stereo not shown) [Example 59, N'-(5-chloro-2-cyano-4-pyrimidinyl)-N'-cyclopentyl-4-{[(3-hydroxy-3-phenylpropyl)(methyl)amino]methyl}benzohydrazide trifluoroacetate] | – | –
15 | 15 to 150 | CCCCCCN(C)Cc1ccc(C(=O)NN(c2nc(C#N)ncc2Cl)C2CCCC2)cc1 [Example 56, N'-(5-chloro-2-cyano-4-pyrimidinyl)-N'-cyclopentyl-4-{[hexyl(methyl)amino]methyl}benzohydrazide trifluoroacetate] | – | –
16 | 2.5 to 15 | CN(Cc1ccc(C(=O)NN(c2nc(C#N)ncc2Cl)C2CCCC2)cc1)C(C)(C)C [Example 73, N'-(5-chloro-2-cyano-4-pyrimidinyl)-N'-cyclopentyl-4-{[(1,1-dimethylethyl)(methyl)amino]methyl}benzohydrazide trifluoroacetate] | – | –
17 | 2.5 to 15 | CN1CCN(Cc2ccc(C(=O)NN(c3nc(C#N)ncc3Br)C3CCCCC3)cc2)CC1 [Example 16, N'-(5-bromo-2-cyano-4-pyrimidinyl)-N'-cyclohexyl-4-[(4-methyl-1-piperazinyl)methyl]benzohydrazide trifluoroacetate] | – | –
18 | 2.5 to 15 | CN(Cc1ccc(C(=O)NN(c2nc(C#N)ncc2Cl)C2CCCC2)cc1)C1CCCCC1 [Example 53, N'-(5-chloro-2-cyano-4-pyrimidinyl)-4-{[cyclohexyl(methyl)amino]methyl}-N'-cyclopentylbenzohydrazide trifluoroacetate] | – | –
19 | < 1 | CC1CCC(N(NC(=O)c2ccc(CN3CCC(N4CCN(C)CC4)CC3)cc2)c2nc(C#N)ncc2Br)C1 (stereo not shown) [Example 4, N'-(5-bromo-2-cyano-4-pyrimidinyl)-N'-(3-methylcyclopentyl)-4-{[4-(4-methyl-1-piperazinyl)-1-piperidinyl]methyl}benzohydrazide trifluoroacetate] | – | –
20 | 2.5 to 15 | CN1CCCC(CN2CCN(Cc3ccc(C(=O)NN(c4nc(C#N)ncc4Br)C4CCCC4)cc3)CC2)C1 (stereo not shown) [Example 8, N'-(5-bromo-2-cyano-4-pyrimidinyl)-N'-cyclopentyl-4-({4-[(1-methyl-3-piperidinyl)methyl]-1-piperazinyl}methyl)benzohydrazide trifluoroacetate] | – | –
21 | 2.5 to 15 | CCN(CCCNC(=O)OC(C)(C)C)Cc1ccc(C(=O)NN(c2nc(C#N)ncc2Cl)C2CCCC2)cc1 [Example 81, 1,1-dimethylethyl {3-[[(4-{[2-(5-chloro-2-cyano-4-pyrimidinyl)-2-cyclopentylhydrazino]carbonyl}phenyl)methyl](ethyl)amino]propyl}carbamate] | – | –
